# Where “and” joins values, the source holds several entries; their conditions need not be identical. Equal entries are not always repeated. Where two headings read alike, the source gives them in different places.
# Tests used:
# [1] = test system: P. aeruginosa ATCC 15442 biofilms; assay: High-throughput biofilm susceptibility screening with checkerboard plates (Calgary Biofilm Device), OD650 endpoint; assay type: cell-based, Pseudomonas aeruginosa
# nitrate reductase (NR) = assay: Nitrate reductase activity of cytosolic fractions of treated cultures (methyl viologen assay); assay type: biochemical, Pseudomonas aeruginosa; conditions: cells grown with 1 mM CuSO4 and/or 25 ppm Polycide®
# Method: (§1) FIGS. 6A-C. Cell survival and nitrate (NO3) reduction by anaerobic P. aeruginosa ATCC 15442 cultures grown in the presence of Cu^2+ and Polycide®, alone and in combination. An aerobic starter culture was grown overnight in TSB and this was diluted 1 in 500 to get a starting cell count of 1×10^7 CFU/mL for anaerobic cultures. These cells were grown in BHI broth, with and without the addition of 1 mM KNO3, for 6 h prior to the addition of 1 mM CuSO4, 25 ppm Polycide , or 1 mM CuSO4+25 ppm Polycide®. Following an additional 48 h incubation at 37° C., aliquots were removed to determine (FIG. 6A) mean viable cell counts and (FIG. 6B) log-killing. Remaining cells from anaerobic cultures were lysed and fractionated into cytosolic and membrane components. The cytosolic components were assayed for (FIG. 6C) nitrate reductase (NR) activity. In this figure, each bar represents the mean and standard deviation of 3 to 8 independent replicates. NR activity calculations were corrected for baseline shifts in spectrophotometric measurements caused by the presence of oxygen in water, which reacts with reduced methyl viologen over time.
# Protein fractionation and nitrate reduction assays. […] Nitrate reductase activity was determined spectrophotometrically at 575 nm for cytoplasmic fractions, using methyl viologen as an electron donor, as previously described (Jones et al., 1977; Magalon et al., 1998).
# [2] = test system: microaerobic cultures of P. aeruginosa ATCC 15442; assay: Cell survival of microaerobic (anaerobic) planktonic cultures; assay type: cell-based, Pseudomonas aeruginosa; conditions: 1 mM CuSO4 and/or 25 ppm Polycide®, 48 h at 37° C., BHI broth
# Method: as §1
# Strains and growth media. All of the microbial strains used in this study are summarized in TABLE 1 and all were stored at −70° C. in Microbank™ vials (ProLab Diagnostics, Toronto, Canada) according to the manufacturer's directions. […]
# [3] = test system: P. aeruginosa ATCC 27853 biofilms; assay: Confocal-laser scanning microscopy (CLSM) with Live/Dead staining of biofilms; assay type: cell-based, Pseudomonas aeruginosa; conditions: 8 mM Cu^2+ and/or 200 ppm Polycide®, qualitative
# Method: Confocal-laser scanning microscopy (CLSM). Pegs were broken from the lid of the CBD using needle nose pliers. Cell viability staining of P. aeruginosa ATCC 27853 biofilms using the Live/Dead® BacLight™ Kit (Molecular Probes, Burlington, ON, Canada) was carried out according to the method as previously described (Harrison et al., 2007). Here, biofilms exposed to metals and/or biocides were rinsed twice with 0.9% saline and then stained with Syto-9 and propidium iodide at 30° C. for 30 min. Fluorescently labeled biofilms were placed in two drops of 0.9% saline on the surface of a glass coverslip. These pegs were examined using a Leica DM IRE2 spectral confocal and multiphoton microscope with a Leica TCS SP2 acoustic optical beam splitter (AOBS) (Leica Microsystems, Richmond Hill, ON, Canada) as previously described (Harrison el al., 2007). To eliminate artefacts associated with single wavelength excitation, Live/Dead® stained samples were sequentially scanned, frame-by-frame, first at 488 nm and then at 543 nm. Fluorescence emission was then sequentially collected in the green and red regions of the spectrum. […]
# Up to this point, the inventors have assessed the antimicrobial action of Cu^2+ and Polycide® using viable cell counting; however, there is an alternate method of assessing biofilm cell survival: CLSM in conjunction with Live/Dead® staining. […]
# [4] = 5 min exposure, double distilled water, single agent, median
# [5] = 30 min exposure, double distilled water, single agent, median
# [6] = 24 h exposure, 10% tryptic soy broth/0.9% NaCl, single agent, median
Compound,Biofilm minimum bactericidal concentration (MBCb) [1],"Biofilm minimum bactericidal concentration (MBCb) [1, 4]","Biofilm minimum bactericidal concentration (MBCb) [1, 5]","Biofilm minimum bactericidal concentration (MBCb) [1, 6]",Nitrate reduction capacity / NR activity of cell lysates (nitrate reductase (NR)),"Effect on microaerobic cultures (viable cell counts, log-killing) [2]",Bacterial cell survival in biofilms by Live/Dead staining [3]
"O=S(=O)([O-])[O-].[Zn+2] [Zn^2 +, zinc sulfate]",>31 mM,,,,,,
"O=[N+]([O-])[O-].[Ag+] [Ag^+, silver nitrate]",,>19 mM,>19 mM,>19 mM,,,
"O=S(=O)([O-])[O-].[Cu+2] [Cu^2+, cupric sulfate]",>32 mM and 32 mM,,,,significantly reduced capacity for nitrate reduction,bacteriostatic,killed a significant portion of the bacterial population
"O=[Se]([O-])[O-].[Na+].[Na+] [SeO3^2−, Sodium selenite]",,>16 mM,>16 mM,>16 mM,,,
"CC(C)O [Isopropyl Alcohol, Isopropyl alcohol]",,0.50%,0.50%,0.50%,,,

# Reference: patent US20100015245A1, “Combination of Copper Cations with Peroxides or Quaternary Ammonium Compounds for the Treatment of Biofilms” (priority 2008, published 2010)
